Laboratory results as given in PubChem BioAssay (NCI).
Where “and” joins values, the source holds several entries; their conditions need not be identical. Equal entries are not always repeated.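 Five compound concentrations were applied to cells in 96-well plates for 48 hours; endpoints were derived by simple linear interpolation of the resulting dose-response curve. GI50: concentration for 50% inhibition of growth. TGI is the concentration that stops growth completely.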

Tests used:
Test in all cases: NCI tumour cell line growth inhibition, 48 h
[1] = test system: ACHN renal
[2] = test system: KM12 colon
[3] = test system: MALME-3M melanoma
[4] = test system: NCI-H226 lung
[5] = test system: OVCAR-3 ovarian
[6] = test system: SF-295 CNS
[7] = test system: SK-OV-3 ovarian
[8] = test system: T-47D breast
[9] = test system: TK-10 renal
[10] = test system: U251 CNS

Compound | GI50 [1] | TGI [1] | GI50 [2] | TGI [2] | GI50 [3] | TGI [3] | GI50 [4] | TGI [4] | GI50 [5] | TGI [5] | GI50 [6] | TGI [6] | GI50 [7] | TGI [7] | GI50 [8] | TGI [8] | GI50 [9] | TGI [9] | GI50 [10] | TGI [10]
CCOC(=O)CCCn1c(SC)nc2[nH]cc(-c3ccccc3)c2c1=O | 8.09 µM | 43.2 µM | 16.8 µM | 38.2 µM | 15.1 µM | 42.1 µM | 14.1 µM | 45.1 µM | 16.8 µM | 42.6 µM | 11.6 µM | 34.2 µM | 25.6 µM | 93.6 µM | 18.2 µM | 61.4 µM | 46.1 µM | > 100 µM | 16.8 µM | 58.5 µM
C=CCCCCC/C=C\[C@H](O)C#CC#C/C=C/CO | > 100 µM | > 100 µM | 18.3 µM | 33.7 µM | 54 µM | > 100 µM | 15.2 µM | 31 µM | 31.7 µM | 80.3 µM | 60.3 µM | > 100 µM | > 100 µM | > 100 µM | 98.4 µM | > 100 µM | 28.8 µM | > 100 µM | 24.5 µM | 77.3 µM
COc1cc(N(CCC#N)CCC#N)ccc1/C(N=Nc1ccc([N+](=O)[O-])cc1)=N/NC(=O)c1cc(Br)ccc1O | 39.6 µg/mL | 131 µg/mL | 28.5 µg/mL | 71 µg/mL | 44.2 µg/mL | 96.1 µg/mL | 5.47 µg/mL | 64.3 µg/mL | 30.9 µg/mL | 76.2 µg/mL | 29.9 µg/mL | 69.6 µg/mL | 37.3 µg/mL | > 150 µg/mL | 34.6 µg/mL | 87 µg/mL | – | – | 57.3 µg/mL | > 150 µg/mL
CC(C)=CC/C=C(/C)[C@H]1CC[C@]2(C)[C@@H]1CC[C@@H]1[C@@]3(C)CCCNC(C)(C)[C@@H]3CC[C@]12C | 3.37 µM | 12.4 µM | – | – | 1.97 µM | 4.69 µM | 3.75 µM | 16.8 µM | 2.08 µM | 4.28 µM | 2 µM | 3.83 µM | 10.6 µM | 24.8 µM | 2.09 µM | 5.03 µM | 10.6 µM | 27 µM | 1.75 µM | 3.28 µM
O=c1c2sc(=S)n(-c3ccc(F)cc3)c2ncn1Cc1ccc(F)cc1F | > 100 µM | > 100 µM | > 100 µM | > 100 µM | > 100 µM | > 100 µM | > 100 µM | > 100 µM | > 100 µM | > 100 µM | 81.9 µM | > 100 µM | > 100 µM | > 100 µM | > 100 µM | > 100 µM | 96 µM | > 100 µM | > 100 µM | > 100 µM
COc1ccc(C(C)=O)cc1N1C(=O)C2C(C1=O)C1(c3ccccc3)C(=O)C2(c2ccccc2)C(c2ccc(C)cc2)=C1c1ccc(C)cc1 (stereo not drawn) | > 100 µM | > 100 µM | > 100 µM | > 100 µM | > 100 µM | > 100 µM | > 100 µM | > 100 µM | > 100 µM | > 100 µM | > 100 µM | > 100 µM | > 100 µM | > 100 µM | > 100 µM | > 100 µM | > 100 µM | > 100 µM | > 100 µM | > 100 µM
CCCCCCCCCCCCCC1=NC(C)(C)CN1C(C)C | 1.64 µM | 2.99 µM | 1.65 µM | 3.01 µM | 1.7 µM | 3.41 µM | 1.72 µM | 3.51 µM | 1.48 µM | 2.8 µM | 1.62 µM | 3.15 µM | 1.79 µM | 3.17 µM | 1.84 µM | 3.8 µM | 1.58 µM | 3 µM | 1.64 µM | 3 µM
CCN(CC)CCC(CNc1ccnc2cc(Cl)ccc12)c1ccc(OC)cc1 (stereo not drawn) | 5.24 µM and 2.77 µM | 19.1 µM and 9.6 µM | 12.8 µM and 5.62 µM | 28.6 µM and 21.5 µM | 1.95 µM and 1.86 µM | 3.76 µM and 3.64 µM | 4.14 µM and 4.92 µM | 17.3 µM and 28.4 µM | 16.7 µM and 6.96 µM | 66.3 µM and 33.1 µM | 2.87 µM and 1.95 µM | 10.2 µM and 7.8 µM | 13.1 µM and 14.1 µM | 33.4 µM and 46 µM | 2.59 µM and 2.73 µM | 6.66 µM and 7.85 µM | 3.97 µM and 1.99 µM | 14.2 µM and 5.15 µM | 4.91 µM and 3.52 µM | 17.2 µM and 11.5 µM
N#CC(=C1C=CC(=NO)C=C1)c1ccccc1 | 1.14 µM | 10.1 µM | 0.355 µM | 1.2 µM | 4.92 µM | 19.8 µM | 2.35 µM | 7.47 µM | 0.458 µM | 4.38 µM | 2.91 µM | 8.16 µM | 5.75 µM | > 65 µM | 0.47 µM | 2.99 µM | 4.47 µM | 13.3 µM | 1.45 µM | 8.72 µM
O=C1c2cccc(NCCCNCCO)c2C(=O)c2cccc(NCCCNCCO)c21 | – | 5.71 µM and 10.4 µM | – | 4.43 µM and 5.84 µM | 2.06 µM and 4.18 µM | 3.94 µM and 10.4 µM | 1.93 µM and 0.729 µM | 5.11 µM and 2.99 µM | – | 5.65 µM and 9.94 µM | 6.32 µM and 2.35 µM | 18.6 µM and 7.37 µM | – | 7.23 µM | – | 8.89 µM | – | 8.6 µM and 13.4 µM | 0.536 µM and 1.4 µM | 2.13 µM and 4.46 µM
O=C(OC(CNc1cc(=O)n(Cc2ccccc2)c(=O)n1Cc1ccccc1)CN1CCCC1)c1ccccc1 (stereo not drawn) | > 100 µM | > 100 µM | > 100 µM | > 100 µM | > 100 µM | > 100 µM | 81.8 µM | > 100 µM | > 100 µM | > 100 µM | > 100 µM | > 100 µM | > 100 µM | > 100 µM | 18.9 µM | > 100 µM | > 100 µM | > 100 µM | > 100 µM | > 100 µM
COc1ccc2c(c1)CCCC(Br)C2=O (stereo not drawn) | – | 20.7 µM | – | 12.8 µM | – | 21.5 µM | – | 5.92 µM | – | 37.7 µM | – | 17.2 µM | – | 14.3 µM | – | > 100 µM | – | 16.8 µM | – | 29.6 µM
CC(C)CCN1c2nc(Nc3cc(F)c(O)c(F)c3)ncc2N(C)C(=O)C1C (stereo not drawn) | 3.21 µM | > 59.5 µM | 2.92 µM | 14.7 µM | 6.63 µM | 64 µM | 17.4 µM | 41.2 µM | 3.65 µM | 24.1 µM | 11.3 µM | > 100 µM | 2.89 µM | > 100 µM | 6.36 µM | 25.9 µM | 4.34 µM | > 87.2 µM | 5.55 µM | 58.6 µM
NC(=O)NC1C(c2ccccc2)=C1c1ccccc1 | – | 31.2 µM | – | 62.2 µM | – | 61 µM | – | 25.1 µM | – | 82.9 µM | – | 54.6 µM | – | 38.2 µM | – | > 100 µM | – | 53.7 µM | – | 32.7 µM
Cn1nc(N)c2cc([C@@H]3Nc4ccc5[nH]ncc5c4[C@H]4C5CCC(C5)[C@@H]34)ccc21 (stereo partly drawn) | 0.593 µM | 41.1 µM | 0.486 µM | 15.2 µM | 0.442 µM | 32.7 µM | 1.14 µM | 23.5 µM | 0.337 µM | 4.07 µM | 0.32 µM | 11.7 µM | 1.16 µM | 69.1 µM | 0.471 µM | 58.8 µM | 19.6 µM | > 100 µM | 0.618 µM | 23.2 µM
N#Cc1c(NN)n(C2OC(CO)C(O)C2O)c2ncnc(N)c12 (stereo not drawn) | 0.0385 µM | – | 0.0874 µM | 1.72 µM | 0.0858 µM | 1.35 µM | 0.496 µM | 2.91 µM | 0.028 µM | 0.299 µM | 0.344 µM | 47.8 µM | 0.198 µM | 0.722 µM | 0.0191 µM | 0.118 µM | 0.247 µM | 7.93 µM | 0.0919 µM | > 100 µM
CCC(C)n1ncn(-c2ccc(N3CCN(c4ccc(OCC5COC(Cn6cncn6)(c6ccc(Cl)cc6Cl)O5)cc4)CC3)cc2)c1=O (stereo not drawn) | 21.7 µM | > 100 µM | 5.69 µM | > 100 µM | 46.2 µM | > 100 µM | 28.1 µM | > 100 µM | 40.9 µM | > 100 µM | 1.4 µM | > 100 µM | 24.2 µM | > 100 µM | 1.27 µM | 74.3 µM | 28.6 µM | > 100 µM | 4.03 µM | > 100 µM
C=C(c1nc2ccc(Cl)cc2[nH]c1=O)C(O)c1ccc(C(O)C(=O)c2nc3ccc(Cl)cc3[nH]c2=O)cc1 (stereo not drawn) | – | > 100 µM | – | > 100 µM | – | > 100 µM | – | > 100 µM | – | > 100 µM | – | > 100 µM | – | > 100 µM | – | > 100 µM | – | > 100 µM | – | > 100 µM
CCn1c(-c2nonc2N)nc2c(C#CC(C)(C)O)nc(OC[C@H](N)c3ccccc3)cc21 | 2.6 µM | 5.78 µM | 2.99 µM | 6.39 µM | 4.69 µM | 9.35 µM | 11.9 µM | 15.8 µM | 3.56 µM | 6.84 µM | 2.95 µM | 7.22 µM | 1.56 µM | 5.71 µM | 2.88 µM | 7.53 µM | 2.69 µM | 6.37 µM | 3.21 µM | 6.67 µM
C=C1C(=O)OC2CCN3CC=C(COC(=O)C(C)(O)C4(CO4)C1C)C23 (stereo not drawn) | – | > 100 µM | – | > 100 µM | – | > 100 µM | – | > 100 µM | – | – | – | > 100 µM | – | > 100 µM | – | > 100 µM | – | > 100 µM | – | > 100 µM
